Results from ChEMBL document CHEMBL4334443, “Characterization of Covalent Pyrazolopyrimidine-MKK7 Complexes and a Report on a Unique DFG-in/Leu-in Conformation of Mitogen-Activated Protein Kinase Kinase 7 (MKK7)” (J Med Chem, 2019).

Experiment: Inhibition of MKK7 beta1 S273D/T275D double mutant (unknown origin) using JNK1 K55M mutant as substrate by ADP-Glo assay
Set-up: species or system Homo sapiens

SMILES | IC50 [µM]
C=CC(=O)N1CCC[C@@H](n2nc(-c3ccc(C(F)(F)F)cc3)c3c(N)ncnc32)C1 | 0.666
CCC(=O)N1CCC[C@@H](n2nc(-c3ccccc3)c3c(N)ncnc32)C1 | > 10
C=CC(=O)N1CCC[C@@H](n2nc(C#CC3CCCC3)c3c(N)ncnc32)C1 | 1.57
CCC(=O)N1CCC[C@@H](n2nc(-c3cccc(C(F)(F)F)c3)c3c(N)ncnc32)C1 | > 10
C=CC(=O)N1CCC[C@@H](n2nc(-c3cn(C)c4ccccc34)c3c(N)ncnc32)C1 | 0.302
CN(C)C/C=C/C(=O)N1CCC[C@@H](n2nc(-c3cccc(C(F)(F)F)c3)c3c(N)ncnc32)C1 | 2.61
CCC(=O)N1CCC[C@@H](n2nc(-c3ccc(F)cc3)c3c(N)ncnc32)C1 | > 10
N#C/C(=C\C1CC1)C(=O)N1CCC[C@@H](n2nc(-c3cnc4[nH]ccc4c3)c3c(N)ncnc32)C1 | > 10
N#C/C(=C\C1CC1)C(=O)N1CCC[C@@H](n2nc(-c3cccc(C(F)(F)F)c3)c3c(N)ncnc32)C1 | > 10
C=CC(=O)N1CCC[C@@H](n2nc(-c3ccc(Oc4ccccc4)cc3)c3c(N)ncnc32)C1 [IBRUTINIB] | 0.078

Continued, values first:

IC50 [µM] | SMILES
0.159 | C=CC(=O)N1CCC[C@@H](n2nc(-c3cccc(C(F)(F)F)c3)c3c(N)ncnc32)C1
0.154 | C=CC(=O)N1CCC[C@@H](n2nc(-c3ccc(F)cc3)c3c(N)ncnc32)C1
0.0086 | C=CC(=O)N1CCC[C@@H](n2nc(-c3ccc(O)cc3)c3c(N)ncnc32)C1
0.113 | C=CC(=O)N1CCC[C@@H](n2nc(-c3ccc4ccccc4c3)c3c(N)ncnc32)C1
0.631 | C=CC(=O)N1CCC[C@@H](n2ncc3c(N)ncnc32)C1
0.149 | C=CC(=O)N1CCC[C@@H](n2nc(-c3cccc4ccccc34)c3c(N)ncnc32)C1
0.307 | C=CC(=O)N1CCC[C@@H](n2nc(C3CC3)c3c(N)ncnc32)C1
0.413 | C=CC(=O)N1CCC[C@@H](n2nc(-c3ccccc3)c3c(N)ncnc32)C1
0.019 | C=CC(=O)N1CCC[C@@H](n2nc(-c3cnc4[nH]ccc4c3)c3c(N)ncnc32)C1
